Structures are written as SMILES. Where “and” joins values, the source holds several entries; their conditions need not be identical. Identical values can stand only once.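 Protocol summary: plate cells (96-well), add compound at 5 concentrations, incubate 48 h, interpolate endpoints linearly. At the GI50, growth is halved.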 Calls of active or inactive are those of the source. Cut-off read from the data, not from the text of the source: active = GI50 up to about 1.1 µM and inactive = higher.

Common to all, as to assay: inhibition of tumour cell growth, NCI panel, 48 h
The subject of assay [1] is UO-31.
In assay [2] the test system is IGROV-1.
The subject of assay [3] is SK-MEL-5.
Assay [4] relates to SW-620.
Assay [5] relates to MDA-MB-231.
The test system of assay [6] is Malme-3M.
For assay [7], the system named is LOX IMVI.
Assay [8] relates to Hs-578T.
In assay [9] the test system is CAKI-1.
The test system of assay [10] is KM12.
The subject of assay [11] is CCRF-CEM.
Assay [12] deals with A549.
Assay [13] deals with TK-10.
Assay [14] relates to UACC-257.
The test system of assay [15] is MCF7.
For assay [16], the system named is MDA-N.
The test system of assay [17] is 786-0.
For assay [18], the system named is A498.
Assay [19] concerns SK-MEL-2.
Assay [20] concerns NCI-H226.
Assay [21] has as its system UACC-62.
The test system of assay [22] is COLO 205.
The test system of assay [23] is HOP-62.
The test system of assay [24] is U-251.
Assay [25] relates to SNB-19.
Assay [26] has as its system HCC 2998.
In assay [27] the test system is MOLT-4.
Assay [28] relates to SN12C.
Assay [29] relates to RXF 393.
In assay [30] the test system is RPMI-8226.
The test system of assay [31] is M14.
Assay [32] deals with ACHN.
In assay [33] the test system is OVCAR-4.
For assay [34], the system named is SK-MEL-28.
In assay [35] the test system is NCI/ADR-RES.
Assay [36] relates to T47D.
Assay [37] relates to SF-295.
Assay [38] deals with HCT-15.
Assay [39] relates to OVCAR-8.
The test system of assay [40] is HL-60.
The subject of assay [41] is OVCAR-5.
In assay [42] the test system is SF-539.
Assay [43] concerns SK-OV-3.
For assay [44], the system named is NCI-H23.
Assay [45] concerns EKVX.
The subject of assay [46] is DU-145.
Assay [47] deals with PC-3.
Assay [48] has as its system OVCAR-3.
For assay [49], the system named is HT-29.
Assay [50] has as its system NCI-H522.
In assay [51] the test system is SNB-75.
The test system of assay [52] is HCT-116.
In assay [53] the test system is SF-268.
In assay [54] the test system is K562.
In assay [55] the test system is MDA-MB-435.

Consider `Nc1nc(N)c2ncn(-c3ccccc3)c2n1`, for which the GI50 in assay [1] was 36.9 µM (inactive); in assay [2] it was 47.2 µM (inactive); in [3] it was > 100 µM (inactive); in assay [4], > 100 µM (inactive); in assay [5] it was 64.9 µM (inactive); in assay [6], > 100 µM (inactive). The GI50 in assay [7] was > 100 µM (inactive); in assay [8], 71 µM (inactive); in [9] it was 66.2 µM (inactive); in assay [10] it was 26.4 µM (inactive); in assay [11] it was 24.9 µM (inactive); in [12] it was 43.6 µM (inactive). Moreover, the GI50 was 54.2 µM (inactive) in assay [13]; > 100 µM (inactive) in assay [14]; 69.7 µM (inactive) in assay [15]; > 100 µM (inactive) in assay [16]; > 100 µM (inactive) in assay [17]; 60.4 µM (inactive) in assay [18]. Also, the GI50 is 73.3 µM (inactive) in assay [19]; > 100 µM (inactive) in assay [20]; 41.5 µM (inactive) in assay [21]; > 100 µM (inactive) in assay [22]; > 100 µM (inactive) in assay [23]; > 100 µM (inactive) in [24]. Moreover, the GI50 in assay [25] was > 100 µM (inactive); in [26], 56.1 µM (inactive); in assay [27], 38.7 µM (inactive); in [28], 93.3 µM (inactive); in assay [29], 44.3 µM (inactive); in assay [30] it was > 100 µM (inactive).

As for `COc1ccc(-c2cc(-c3ccccc3)c(C#N)c(=O)n2C2OC(COC(C)=O)C(OC(C)=O)C(OC(C)=O)C2OC(C)=O)cc1` (stereo not given), the GI50 in assay [1] was 67.6 µM (inactive) and 42.4 µM (inactive).

Consider `O=C1C=CC(=O)c2c(O)nc(CBr)nc21`, for which the GI50 in assay [1] was > 100 µM (inactive); in assay [31], 61.5 µM (inactive); in assay [2] it was > 100 µM (inactive); in [3] it was 44.9 µM (inactive); in [32], > 100 µM (inactive); in assay [33], > 100 µM (inactive). In addition, the GI50 in assay [5] was 61 µM (inactive); in assay [6], > 100 µM (inactive); in assay [34] it was > 100 µM (inactive); in [7], > 100 µM (inactive); in assay [8], > 100 µM (inactive); in [9], > 100 µM (inactive). In addition, the GI50 in [10] was 52 µM (inactive); in assay [35], > 100 µM (inactive); in assay [12], > 100 µM (inactive); in assay [36] it was > 100 µM (inactive); in assay [37], 68.9 µM (inactive); in [38], over 100 µM. The GI50 in [39] was > 100 µM (inactive); in assay [40], 14.9 µM (inactive); in [41], > 100 µM (inactive); in assay [42], > 100 µM (inactive); in [14], > 100 µM (inactive); in assay [15], 56.2 µM (inactive). Also, the GI50 in assay [16] is 36.1 µM (inactive); in assay [43], > 100 µM (inactive); in assay [17] it was > 100 µM (inactive); in assay [44] it was 80.5 µM (inactive); in assay [18], 82.6 µM (inactive); in assay [19], > 100 µM (inactive). In addition, the GI50 is > 100 µM (inactive) in assay [45]; > 100 µM (inactive) in [46]; 42.2 µM (inactive) in assay [47]; 46.5 µM (inactive) in assay [21]; > 100 µM (inactive) in assay [22]; > 100 µM (inactive) in assay [23]. For the same compound, the GI50 in assay [24] was 95.9 µM (inactive); in assay [48] it was > 100 µM (inactive); in [49], 60.5 µM (inactive); in assay [26], > 100 µM (inactive); in [50], > 100 µM (inactive); in [51], > 100 µM (inactive). Moreover, the GI50 in [52] is 56.8 µM (inactive); in assay [53], > 100 µM (inactive); in [27], > 100 µM (inactive); in assay [28] it was 38.5 µM (inactive); in assay [29], > 100 µM (inactive); in assay [54], 94.4 µM (inactive). Further, the results for the GI50 in [55] and in assay [30] were 30.4 µM (inactive) and 97.9 µM (inactive), respectively.

With `CC(=O)OC(C)(C)/C(C)=C/C(=O)O[C@H]1C(=O)O[C@@H]2C[C@H]3[C@H](C)C(=O)C(O[C@@H]4O[C@H](CO)[C@@H](O)[C@H](O)[C@H]4O)=C[C@]3(C)[C@H]3[C@@H](O)[C@H](O)[C@@]4(C(=O)O)OC[C@]32[C@@H]14` [Bruceoside-F], the GI50 in assay [3] was > 10 µM (inactive); in assay [34] it was 79.3 µM (inactive); in assay [7] it was 81.3 µM (inactive); in assay [24], 87.3 µM (inactive).

The record behind these values is ChEMBL document CHEMBL1201862, “PubChem BioAssay data set” (2004).
